Results published in PMC6675120, “Potent and selective inhibitors for M32 metallocarboxypeptidases identified from high-throughput screening of anti-kinetoplastid chemical boxes” (PLoS Neglected Tropical Diseases, 2019).
Where “and” joins values, the source holds several entries; their conditions need not be identical. Equal entries are not always repeated. Where two headings read alike, the source gives them in different places.

Columns and labels:
TcMCP-1 = TcMCP-1 (Trypanosoma cruzi, UniProt Q6ZXC0); assay: Continuous fluorogenic (FRET) TcMCP-1 assay with Abz-LKFK(Dnp)-OH, primary and secondary screening; type: biochemical; parameters: inhibition: dose or concentration left out as unconfirmed; details: for TcMCP-1 Hill Slope: four-parameter Hill fit of dose-response curve; for inhibition: read-out: TcMCP-1 Secondary screening Inhibition (%); for TcMCP-1 2º/1º ratio: secondary (31,5 µM) / primary (25 µM) inhibition; for inhibition at 25 µM / TcMCP-1 Primary screening Inhibition (%): single inhibitor concentration 25 µM; for TcMCP-1 Secondary screening Inhibition (%): single inhibitor concentration 31,5 µM; for EDTA control (RFU/sec) Mean: EDTA final concentration 31,25 mM, inhibition control
Sequence of TcMCP-1 (Q6ZXC0 entry or part of it): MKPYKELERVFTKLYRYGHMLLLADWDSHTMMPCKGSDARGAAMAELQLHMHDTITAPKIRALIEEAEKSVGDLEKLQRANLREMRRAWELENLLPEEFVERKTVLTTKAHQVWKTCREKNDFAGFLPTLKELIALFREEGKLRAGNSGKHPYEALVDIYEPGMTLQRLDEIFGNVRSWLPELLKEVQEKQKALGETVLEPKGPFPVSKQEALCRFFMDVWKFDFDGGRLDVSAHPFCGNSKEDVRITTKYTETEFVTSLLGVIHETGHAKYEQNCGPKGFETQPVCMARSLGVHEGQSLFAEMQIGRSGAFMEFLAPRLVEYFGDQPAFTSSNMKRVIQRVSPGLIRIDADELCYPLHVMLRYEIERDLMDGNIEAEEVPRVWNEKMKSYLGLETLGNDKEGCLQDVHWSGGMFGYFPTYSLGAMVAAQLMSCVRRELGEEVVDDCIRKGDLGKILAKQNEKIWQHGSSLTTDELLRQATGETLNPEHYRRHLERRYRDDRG
Experimental: (§1) TcMCP-1 (MEROPS ID: M32.003) and TbMCP-1 were expressed as GST fusion proteins in E. coli BL21 (DE3) Codon Plus and purified as previously described.
(§2) TbMCP-1 and TcMCP-1 activities were assayed fluorometrically with Abz-RFFK(Dnp)-OH and Abz-LKFK(Dnp)-OH substrates, respectively, in 100 mM MOPS pH 7,2 containing 0,01% Triton X-100. Assays were performed in solid black 384-well plates (final reaction volume ~80 μL) and the hydrolysis of the K(Dnp)-OH group was monitored continuously at 30 °C with a Beckman Coulter DTX 880 Multimode Reader (Radnor, Pennsylvania, USA) using standard 320 nm excitation and 420 nm emission filter set.
(§3) In all cases, EDTA (final concentration 31,25 mM) was used as positive inhibition control.
(§4) Then, 40 μL of 100 mM MOPS, 0,01% Triton X-100 pH 7,2 containing TbMCP-1 (2,50 nM) or TcMCP-1 (0,34 nM) were added to each well, plates were homogenized (30 seg, orbital, medium intensity) and each well subjected to a single autofluorescence read (ex/em = 320/420 nm). Plates were incubated in darkness for 15 min at 30 °C and then 40 μL of Abz-RFFK(Dnp)-OH (4 μM) or Abz-LKFK(Dnp)-OH (0,8 μM) in assay buffer were added to each well to start the reaction. After homogenization (30 seg, orbital, medium intensity), the fluorescence of the Abz group (ortho-aminobenzoic acid) (ex/em = 320/420 nm) was acquired kinetically for each well (8 read cycles, one cycle every 300 seconds). Considering our previous experiences, the auto-fluorescent cut-off was arbitrarily set at 2x10^5 RFU to discard highly interfering compounds. All compounds were assayed in singlet (without replicates) due to the limited availability of stocks.
(§5) Raw screening measurements were used to determine the slope (dF/dt) of progression curves by linear regression for control and non-interfering compound wells. In the case of control-dependent hit selection criteria, percent inhibition percentage (%Inh) was calculated for each compound according to the following equation: Inh=100∙[1−(dF/dt^WELL−μ^C−)/(μ^C+−μ^C−)] (1) where dF/dt^WELL represents the slope of each compound well and μ^C+ and μ^C− the average of MCP (no-inhibition) and substrate (no-enzyme) controls, respectively.
(§6) Compounds selected from primary screening were re-tested in a dose-response manner (final concentration ranging from 7,5 to 62,5 μM) using identical assay conditions. To avoid any positional and/or association bias, we randomly defined the row position for each compound. One μL of compounds stock (10 mM in DMSO) and EDTA (31,25 mM) were added to the first well of column 1, followed by addition of 40 μL of 100 mM MOPS, 0,01% Triton X-100 pH 7,2 buffer. After addition of 20 μL of the same buffer to subsequent wells of the plate, 22 serial 2-fold dilutions were made horizontally. The last two positions of every row were used, alternatively, for C^+ and C^− controls to reduce any positional and/or association bias. Then, 20 μL of activity buffer containing TbMCP-1 or TcMCP-1 were added to each well, except for those corresponding to C^−; completed with 20 μL of activity buffer. After homogenization, 15 minutes of incubation at 30°C and autofluorescence measurement, the substrate (in activity buffer) was added to the previous mix. Data collection and processing were performed exactly as described above. Percentage of M32 MCPs residual activity was calculated for each condition according to the following equation: %Res.Act^MCP=100∙[(dF/dt^WELL−μ^C−)/(μ^C+−μ^C−)] (2) where dF/dt^WELL represents the slope of each compound well and μ^C+ and μ^C− the average of MCP (no-inhibition) and substrate (no-enzyme) controls, respectively.

TbMCP-1 = TbMCP-1 (Trypanosoma brucei, UniProt Q386R0); assay: Continuous fluorogenic (FRET) TbMCP-1 assay with Abz-RFFK(Dnp)-OH, primary and secondary screening; type: biochemical; details: for inhibition at 25 µM: read-out: TbMCP-1 Primary screening Inhibition (%); for TbMCP-1 Hill Slope: four-parameter Hill fit of dose-response curve; for TbMCP-1 2º/1º ratio: secondary (31,5 µM) / primary (25 µM) inhibition; for TbMCP-1 Secondary screening Inhibition (%) / inhibition: single inhibitor concentration 31,5 µM; for EDTA control (RFU/sec) Mean: EDTA final concentration 31,25 mM, inhibition control
Sequence of TbMCP-1 (Q386R0 entry or part of it): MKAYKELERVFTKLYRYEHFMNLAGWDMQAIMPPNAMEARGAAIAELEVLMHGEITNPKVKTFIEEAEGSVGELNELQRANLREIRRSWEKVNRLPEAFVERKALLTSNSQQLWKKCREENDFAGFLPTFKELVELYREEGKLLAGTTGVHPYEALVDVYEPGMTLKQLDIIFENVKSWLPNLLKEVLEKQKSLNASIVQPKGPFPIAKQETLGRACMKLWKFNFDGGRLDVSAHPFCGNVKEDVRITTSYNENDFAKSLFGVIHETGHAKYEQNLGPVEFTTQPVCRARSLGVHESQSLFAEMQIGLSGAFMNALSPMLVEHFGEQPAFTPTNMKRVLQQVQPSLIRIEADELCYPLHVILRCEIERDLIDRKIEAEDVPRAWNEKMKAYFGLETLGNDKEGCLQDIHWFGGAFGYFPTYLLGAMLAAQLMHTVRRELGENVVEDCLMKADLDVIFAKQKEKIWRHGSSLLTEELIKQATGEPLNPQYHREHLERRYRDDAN
Experimental: as §1, §2, §3, §4, §5
as §6, with “To” for “Compounds selected from primary screening were re-tested in a dose-response manner (final concentration ranging from 7,5 to 62,5 μM) using identical assay conditions. To”

[1] = secondary screening, two-fold dilutions 7,5 pM to 62,5 μM, KM/[S] ~ 1, no replicates
[2] = single inhibitor concentration 25 µM

Row | Compound | TcMCP-1 Hill Slope (TcMCP-1) | TcMCP-1 2º/1º ratio (TcMCP-1) | IC50 (TcMCP-1) | TcMCP-1 Primary screening Inhibition (%) (TcMCP-1) | TcMCP-1 Secondary screening Inhibition (%) (TcMCP-1) | TbMCP-1 Hill Slope (TbMCP-1) | TbMCP-1 2º/1º ratio (TbMCP-1) | also measured
1 | CS(=O)(=O)c1cccc(CNC(=O)c2cncc(N3CCN(c4ccc(F)cc4)CC3)c2)c1 [TCMDC-143385] | -0,9614 | 1,88 |  |  |  |  |  | inhibition (TcMCP-1): 80.8%; IC50 (TcMCP-1; [1]): ≤ 10 µM and ~10 µM; inhibition at 25 µM (TcMCP-1): 42.9%; inhibition at 25 µM (TbMCP-1): < 40%
2 | COc1ccc2ncc(Cl)c(CCN3CC[C@@H](NCc4cc5c(cn4)OCS5)[C@H](O)C3)c2n1 [TCMDC-143513] | -0,9734 | 1,07 | 13.5 µM | 65,65% | 70,48% | -0,8371 | 0,76 | IC50 (TbMCP-1): 28.3 µM; TbMCP-1 Primary screening Inhibition (%) (TbMCP-1; [2]): 56,08%; TbMCP-1 Secondary screening Inhibition (%) (TbMCP-1): 42,64%
3 | O=C(Nc1nc2cc(Cl)ccc2o1)c1cccc(Cl)c1 [TCMDC-143172] | -2,825 | 1,30 | 11.2 µM | 65,01% | 84,56% |  | -0,04 | IC50 (TcMCP-1; [1]): ~10 µM; TbMCP-1 Primary screening Inhibition (%) (TbMCP-1; single inhibitor concentration 25 µM, 25 µM): 42,44%; TbMCP-1 Secondary screening Inhibition (%) (TbMCP-1): -1,57%
4 | Fc1ccccc1N1CC2CCN(c3cccnc3)CC2C1 (stereo not shown) [TCMDC-143422] | -1,038 | 1,19 | 1.52 µM |  |  | -1,206 | 0,99 | inhibition (TcMCP-1): 93.9%; IC50 (TcMCP-1; [1]): ≤ 10 µM; inhibition at 25 µM (TcMCP-1): 78.8%; IC50 (TbMCP-1; [1]): 10.5 µM; inhibition at 25 µM (TbMCP-1; [2]): 81.1%; inhibition (TbMCP-1): 80.2%
5 | O=C(O)CN(CCN(CC(=O)O)CC(=O)O)CC(=O)O [EDTA, reference compound] |  |  |  |  |  |  |  | EDTA control (RFU/sec) Mean (TcMCP-1; Plate 1): 1,28 RFU/sec; EDTA control (RFU/sec) Mean (TcMCP-1; Plate 2): 2,32 RFU/sec; EDTA control (RFU/sec) Mean (TbMCP-1; Plate 1): 0,13 RFU/sec; EDTA control (RFU/sec) Mean (TbMCP-1; Plate 2): 0,39 RFU/sec
6 | O=C(c1cccc(Cl)c1Cl)N1CCn2c1nc(-c1ccncc1)cc2=O [TCMDC-143409] |  |  |  |  |  | -1,2409 | 1,13 | inhibition on TcMCP-1 (TcMCP-1): < 30%; IC50 (TbMCP-1; [1]): 10.4 µM; inhibition at 25 µM (TbMCP-1; [2]): 68.9%; inhibition (TbMCP-1): 78%
7 | Cc1cc(C)c(C#N)c(SCC(=O)c2ccc3c(c2)OCO3)n1 [TCMDC-143625] |  | 0,45 |  | 43,83% | 19,89% |  | 0,35 | TbMCP-1 Primary screening Inhibition (%) (TbMCP-1; [2]): 49,55%; TbMCP-1 Secondary screening Inhibition (%) (TbMCP-1): 17,11%
8 | O=C(NNC(=O)c1ccccn1)c1ccc(-c2ccccc2)cc1 [TCMDC-143263] | -0,9946 | 0,31 | 40.7 µM | 48,44% | 14,84% |  |  | 
9 | COc1cccc(S(=O)(=O)Nc2ccc3c(c2)CC(N2CCC(NC(=O)C4CC4)CC2)C3)c1 (stereo not shown) [TCMDC-143583] |  | -0,15 |  | 77,30% | -11,25% |  |  | 
10 | COc1ccc(S(=O)(=O)Nc2ccc(CN3CCN(C(=O)c4cccc(C#N)c4)CC3)cc2)cc1.O=C(O)C(F)(F)F [TCMDC-143496] | -0,822 | 1,09 | 34.9 µM | 41,52% | 45,37% |  |  | 
11 | COc1cc(Nc2nccc(Nc3onc(C)c3C)n2)cc(S(=O)(=O)C2CCOCC2)c1 [TCMDC-143462] | -0,9436 | 1,40 | 15.5 µM | 43,06% | 60,29% |  | 0,13 | TbMCP-1 Primary screening Inhibition (%) (TbMCP-1; [2]): 47,90%; TbMCP-1 Secondary screening Inhibition (%) (TbMCP-1): 6,29%
12 | CN(C)c1ccc(-c2cc3nccnc3c(OC[C@H]3CCCNC3)n2)cn1.Cl [TCMDC-143408] | -1,153 | 1,06 | 32.9 µM | 46,88% | 49,75% |  |  | 
13 | CCn1c(-c2nonc2N)nc2c(C(C)O)ncc(OC(CN)c3ccccc3)c21 (stereo not shown) [TCMDC-143323] |  |  |  |  |  | -0,894 | 1,00 | inhibition on TcMCP-1 (TcMCP-1): < 30%; inhibition at 25 µM (TbMCP-1; [2]): 87.2%; inhibition (TbMCP-1): 87%
14 | CC(Cn1ccnc1)NC(=O)COc1ccc(Cl)c(Cl)c1 (stereo not shown) [TCMDC-143479] |  | 0,31 |  | 42,39% | 13,15% |  |  | 
15 | O=c1[nH]c(C=Cc2cccc(OCCOc3ccccc3)c2)nc(O)c1[N+](=O)[O-] [TCMDC-143209] | -1,019 | 1,09 | 4180 µM |  |  | -1,2405 | 0,86 | inhibition (TcMCP-1): 92.5%; IC50 (TcMCP-1; [1]): ≤ 10 µM; inhibition at 25 µM (TcMCP-1): 85%; IC50 (TbMCP-1): 28.3 µM; inhibition at 25 µM (TbMCP-1; [2]): 50%; inhibition (TbMCP-1): 42.9%
